Laboratory results taken from the NIST ThermoML archive (doi:10.1016/j.fluid.2008.09.026).
± gives the expanded uncertainty stated by the source. Blank lines part the entries; values can stand above or below the compound they belong to.

Conditions: Liquid, Ebulliometric method (Recirculating still)

vapor or sublimation pressure (398.12 K): 60 ± 0.1 kPa | vapor or sublimation pressure (407.13 K): 80 ± 0.1 kPa | vapor or sublimation pressure (414.21 K): 100 ± 0.1 kPa
SMILES: CC(C)OCCO [2-isopropoxyethanol]

SMILES: CCCCCCC [heptane]
vapor or sublimation pressure (354.72 K): 60 ± 0.1 kPa | vapor or sublimation pressure (363.74 K): 80 ± 1 kPa | vapor or sublimation pressure (371.2 K): 100 ± 0.1 kPa

vapor or sublimation pressure (326.11 K): 60 ± 0.1 kPa | vapor or sublimation pressure (334.61 K): 80 ± 0.1 kPa | vapor or sublimation pressure (341.48 K): 100 ± 0.1 kPa
SMILES: CCCCCC [hexane]
